Experiments:
Assay in all cases: relative viability (nuclei count vs DMSO), 5 days (fraction); higher = more cells survive
[1] = compound: C#Cc1cccc(Nc2ncnc3cc(OC)c(OCCCCCCC(=O)NO)cc23)c1 [CUDC-101] + Cc1nc(Nc2ncc(C(=O)Nc3c(C)cccc3Cl)s2)cc(N2CCN(CCO)CC2)n1 [Dasatinib] (partner 0.075 µM)
Outline: (§1)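 Five library-drug doses in √10 steps were combined with a fixed anchor-drug dose, or a single drug was given alone, by pin tool to lung cancer cell lines in 1536-well plates the day after seeding. Nuclei were stained and counted after 5 days. Relative viability is the nuclei count in treated wells over that in vehicle wells, taken as the median of duplicate plates.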

[2] = compound: COc1cc2/c(=N/c3ccc(Br)cc3F)nc[nH]c2cc1OCC1CCN(C)CC1 [Vandetanib] + Nc1nc2[nH]cc(CCc3ccc(C(=O)N[C@@H](CCC(=O)O)C(=O)O)cc3)c2c(=O)[nH]1 [Pemetrexed] (partner 0.2 µM)
Outline: as §1

[3] = compound: C1=CC=C2C(=C1)N=C(S2)C(C#N)C3=NC(=NC=C3)NCCC4=CN=CC=C4 + CC1(C)CCC(c2ccc(Cl)cc2)=C(CN2CCN(c3ccc(C(=O)NS(=O)(=O)c4ccc(N[C@H](CCN5CCOCC5)CSc5ccccc5)c(S(=O)(=O)C(F)(F)F)c4)cc3)CC2)C1 [Navitoclax] (partner 0.5 µM)
Outline: as §1

[4] = compound: C1=CC=C2C(=C1)N=C(S2)C(C#N)C3=NC(=NC=C3)NCCC4=CN=CC=C4 + NC(=O)Nc1cc(-c2cccc(F)c2)sc1C(=O)N[C@H]1CCCNC1 [AZD7762] (partner 0.2 µM)
Outline: as §1

Cell Line	relative viability ([1]; first compound 0.01 µM)	relative viability ([1]; first compound 0.03162 µM)	relative viability ([1]; first compound 0.1 µM)	relative viability ([1]; first compound 0.3162 µM)	relative viability ([1]; first compound 1 µM)	relative viability ([2]; first compound 0.02 µM)	relative viability ([2]; first compound 0.06325 µM)	relative viability ([2]; first compound 0.2 µM)	relative viability ([2]; first compound 0.6325 µM)	relative viability ([2]; first compound 2 µM)	relative viability ([3]; first compound 0.01581 µM)	relative viability ([3]; first compound 0.05 µM)	relative viability ([3]; first compound 0.1581 µM)	relative viability ([3]; first compound 0.5 µM)	relative viability ([4]; first compound 0.005 µM)	relative viability ([4]; first compound 0.01581 µM)	relative viability ([4]; first compound 0.05 µM)	relative viability ([4]; first compound 0.1581 µM)	relative viability ([4]; first compound 0.5 µM)	relative viability ([3]; first compound 0.005 µM)
SK-LU-1	0.189	0.219	0.177	0.207	0.196	0.971	0.787	1.01	1.07	1.04	0.828	0.694	1.02	1.02						
LCLC-97TM1	0.821	0.804	0.864	0.855	0.596	0.18	0.184	0.166	0.181	0.181	0.429	0.339	0.596	0.288	0.153	0.192	0.342	0.291	0.21	0.382
NCI-H1915	0.301	0.292	0.293	0.292	0.24	0.496	0.509	0.523	0.505	0.477	0.805	0.762	0.77	0.775		0.679	0.698	0.693	0.699	0.802
NCI-H358	0.157	0.164	0.166	0.16	0.131	0.173	0.17	0.17	0.165	0.162					0.579	0.492		0.592	0.496	
LK-2	0.298	0.389	0.25	0.284	0.157	0.259	0.228	0.284	0.276	0.245	0.931	0.824	0.916	0.843	0.347	0.41	0.488	0.454	0.445	
ABC-1	0.772	0.728	0.543	0.532	0.194										0.913	0.809	0.789	0.921	0.848	
NCI-H2228	0.542	0.543	0.536	0.52	0.4	0.284	0.337	0.337	0.343	0.292	1.39	0.827	0.997	0.954						0.915
NCI-H1563	0.439	0.465	0.448	0.488	0.429	0.75	0.732	0.755	0.678	0.755										
NCI-H661	0.926	0.926	0.862	0.815	0.386	0.882	0.938	0.98	0.907	0.907										
NCI-H1650	0.302	0.292	0.321	0.324	0.221	0.374	0.315	0.404	0.371	0.392	1.17	1.22	1.31	1.07						0.964
NCI-H2009	0.321	0.281	0.396	0.443	0.338	1.02	1.14	0.99	0.986	1.05	1.17	1.14	1.22	1.21						1.13
LCLC-103H	0.524	0.384	0.451	0.478	0.46	0.497	0.493	0.478	0.48	0.5					0.849	0.784	0.804	0.929	0.779	
NCI-H1623	0.561	0.501	0.429	0.676	0.486															
NCI-H2342	0.316	0.301	0.325	0.298	0.241	0.728	0.832	0.77	0.801	0.668					0.546	0.484	0.49	0.583	0.467	
COR-L23	0.578	0.485	0.477	0.499	0.177	0.179	0.197	0.223	0.21	0.187	0.94	1.1	1.04	1.15						0.929
EBC-1											0.426	0.317	0.472	0.298						0.402
NCI-H727	0.298	0.422	0.359	0.375	0.311						0.334	0.347	0.414	0.397	0.788	0.533	0.667	0.626	0.618	0.465
NCI-H650	0.486	0.482	0.495	0.436	0.337	0.844	0.801	0.869	0.964	0.873					1.12	1.07	0.891	1.23	1.09	
NCI-H1299											1.11	1.05	1.11	1.09						1.08
Calu-6											0.834	0.819	0.961	0.768						0.785
NCI-H1703											1.04	1.02	1.14	1.02	0.118	0.121	0.123	0.109	0.108	1.01
SK-MES-1	0.333	0.394	0.367	0.417	0.207	1.01	0.882	0.961	0.77	0.93	1.19	1.3	1.28	1.02						1.76
SW 1573	0.62	0.764	0.517	0.498	0.358	0.899	0.841		0.909	0.887	1.15		1.03	0.828						0.863
NCI-H1648						0.568	0.691	0.652	0.995	0.714						0.689		0.569	0.604	

From the supplement of paper PMC10307832
